{"source": "patent US20090169538A1", "about": "“Methods of Treating or Preventing Tissue Damage Caused by Increased Blood Flow” (REGENERX BIOPHARMACEUTICALS, INC., priority 2006, published 2009)", "key": {"[1]": {"test_system": "primary rat neonatal cardiomyocytes", "experiment": "primary neonatal cardiomyocytes cultured on laminin-coated glass", "type": "cell-based", "protocol": "To test the response of post-natal cardiomyocytes, primary rat neonatal cardiomyocytes were cultured on laminin-coated glass and treated the cells with phosphate buffered saline (PBS) or thymosin β4. […] In addition to thymosin β4's effects on myocardial cell migration, a similar effect was observed on endothelial migration in the embryonic heart explant assay.\nPrimary culture of neonatal cardiomyocytes typically survived for approximately one to two weeks with some cells beating up to two weeks when grown on laminin-coated slides in our laboratory. […] In addition, the rate of beating was consistently faster in thymosin β4-treated neonatal cardiomyocytes (95 vs. 50 beats per minute, p<0.02), indicating either a change in cell-cell communication or more vigorous cardiomyocytes."}, "ILK and Akt": {"test_system": "ILK and Akt", "experiment": "western blot of heart lysates after coronary ligation", "type": "in vivo, mice", "protocol": "Because thymosin β4 upregulates ILK activity and Akt phosphorylation in cultured cells, the effects on these kinases in vivo were tested. […] Total Akt protein was not increased.\n(§1) Myocardial infarction was produced in fifty-eight male C57BL/6J mice at 16 weeks of age (25-30 g) by ligation of the left anterior descending coronary artery as previously described. Twenty-nine of the ligated mice received thymosin β4 treatment immediately following ligation and the remaining twenty-nine received PBS injections. Treatment was given intracardiac with thymosin β4 (200 ng in 10 ul collagen) or with 10 ul of collagen; intraperitoneally with thymosin β4 (150 μg in 300 μl PBS) or with […]; or by both intracardiac and intraperitoneal injections. Intraperitoneal injections were given every three days until mice were sacrificed. Doses were based on previous studies of thymosin β4 biodistribution. Hearts were removed, weighed and fixed for histologic sectioning. Additional mice were operated on in a similar fashion for studies 0.5, 1, 3, 6 and 11 days after ligation."}, "myocardial infarction": {"test_system": "myocardial infarction", "experiment": "myocardial infarction by coronary artery ligation, echocardiography and histology", "type": "in vivo, mice", "protocol": "Because of thymosin β4's effects on survival and migration of cardiomyocytes cultured in vitro and phosphorylation of Akt, it was tested whether thymosin β4 might aid in cardiac repair in vivo after myocardial damage. Myocardial infarctions in fifty-eight adult mice were created by coronary artery ligation and treated half with systemic, intracardiac, or systemic plus intracardiac thymosin β4 immediately after ligation and the other half with PBS. Intracardiac injections were done with collagen (control) or collagen mixed with thymosin β4. All forty-five mice that survived two weeks later were interrogated for cardiac function by random-blind ultrasonagraphy at 2 and 4 weeks after infarction by multiple measurements of cardiac contraction. […] Control cardiac injections were performed with the same collagen vehicle making it unlikely that an endogenous reaction to the injection contributed to the cardiac recovery.\nTo determine the manner in which thymosin β4 improved cardiac function, multiple serial histologic sections of hearts treated with or without thymosin β4 were examined. […] TUNEL positive cells that were also myocytes were rare in the thymosin β4 group but abundant in the control hearts. […] Thus, the decreased scar volume and preserved function of thymosin β4 treated mice were likely due to early preservation of myocardium after infarction through thymosin β4's effects on survival of cardiomyocytes.\nEmbryonic or adult cardiac tissue was embedded in paraffin and sections used for immunohistochemistry. […] Adult hearts were sectioned at ten equivalent levels from the base of the heart to the apex. Serial sections were used for trichrome sections and reaction with sarcomeric a-actinin, c-kit, Sca-1, Abcg2, and BrdU antibodies and for TUNEL assay (Intergen Company # S7111).\nas §1\nEchocardiograms to assess systolic function were performed using M-mode and 2-dimensional measurements as described previously. The measurements represented the average of six selected cardiac cycles from at least two separate scans performed in random-blind fashion with papillary muscles used as a point of reference for consistency in level of scan. End diastole was defined as the maximal left ventricle (LV) diastolic dimension and end systole was defined as the peak of posterior wall motion. Single outliers in each group were omitted for statistical analysis. Fractional shortening (FS), a surrogate of systolic function, was calculated from LV dimensions as follows: FS=EDD−ESD/EDD×100%. Ejection fraction (EF) was calculated from two-dimensional images. EDD, end diastolic dimension; ESD, end systolic dimension.\nScar volume was calculated using six sections through the heart of each mouse using Openlab 3.03 software (Improvision) similar to previously described. Percent area of collagen deposition was measured on each section in blinded fashion and averaged for each mouse."}, "embryonic heart explants": {"test_system": "embryonic heart explants", "type": "cell-based", "text": "To test the effects of secreted thymosin β4 on cardiac cell migration, an embryonic heart explant system designed to assay cell migration and transformation events on a three-dimensional collagen gel was utilized. In this assay, explants of adjacent embryonic myocardium and endocardium from valve-forming regions were placed on a collagen gel with the endocardium adjacent to the collagen.\nOutflow tract was dissected from E11.5 wild type mouse embryos and placed on collagen matrices as previously described. After 10 hours of attachment explants were incubated in 30 ng/300 μl thymosin β4 in PBS, PBS alone or thymosin β4 and 100 nM wortmanin. Cultures were carried out for 3-9 days at 37° C. 5% CO2 and fixed in 4% paraformaldehyde in PBS for 10 min at RT. Cells were counted for quantification of migration and distance using at least three separate explants under each condition for endothelial migration and eight separate explants for myocardial migration.\nParaformaldehyde-fixed explants were permeabilized for 10 min at RT with Permeabilize solution (10 mM PIPES pH6.8; 50 mMNaCl; 0.5% Triton X-100; 300 mM Sucrose; 3 mM MgCl2) and rinsed with PBS 2×5 min at RT. After a series of blocking and rinsing steps, detection antibodies were used and explants rinsed and incubated with Equilibration buffer (Anti-Fade kit) 10 min at room temperature. Explants were scooped to a glass microscope slide, covered, and examined by fluorescein microscopy. TUNEL assay was performed using ApopTag Plus Fluorescein In Situ Apoptosis detection kit (Intergen Company # S7111) as recommended."}, "[2]": {"conditions": "four weeks after infarction, versus control"}}}
{"substance": "thymosin β4", "values": [{"measurement": "migrational distance of neonatal cardiomyocytes", "setting": "[1]; compared to PBS control, p<0.05", "result": "significantly increased"}, {"measurement": "survival, rhythmically contracting myocytes visible", "setting": "[1]; laminin-coated slides, untreated cultures approximately one to two weeks", "result": "up to 28 days"}, {"measurement": "rate of beating", "setting": "[1]; vs. 50 in control, p<0.02", "result": 95, "unit": "beats per minute"}, {"measurement": "total Akt protein", "setting": "ILK and Akt", "result": "not increased"}, {"measurement": "level of ILK protein in heart lysates", "setting": "ILK and Akt; compared with PBS treated mice", "result": "increased"}, {"measurement": "amount of phosphorylated Akt-5473", "setting": "ILK and Akt; phospho-specific antibodies", "result": "elevation"}, {"measurement": "cardiac dilation after infarction (EDD and ESD)", "setting": "myocardial infarction; EDD and ESD significantly higher in control group", "result": "decreased cardiac dilation"}, {"measurement": "degree of improvement, systemic intraperitoneal versus local intracardiac administration", "setting": "myocardial infarction; echocardiography", "result": "not statistically different"}, {"measurement": "mean fractional shortening of left ventricle", "setting": "myocardial infarction; four weeks after infarction, n=23, 95% confidence interval, p<0.0001, control 23.2", "result": "37.2+/−1.8%"}, {"measurement": "mean ejection fraction", "setting": "myocardial infarction; four weeks after infarction, n=23, 95% confidence interval, p<0.0001, control 28.2", "result": "57.7+/−3.2%"}, {"measurement": "improvement in cardiac fractional shortening", "setting": "myocardial infarction; [2]", "result": "greater than 60%"}, {"measurement": "improvement in ejection fraction", "setting": "myocardial infarction; [2]", "result": "> 100", "unit": "%"}, {"measurement": "scar volume", "setting": "myocardial infarction; six levels of sections through left ventricle, subset of mice, p<0.05", "result": "significant reduction"}, {"measurement": "left ventricle fractional shortening", "setting": "myocardial infarction; three days after infarction, intracardiac treatment, n=4, 95% confidence interval, p<0.02, controls 28.8", "result": "39.2+/−2.34%"}, {"measurement": "ejection fraction", "setting": "myocardial infarction; three days after infarction, intracardiac treatment, p<0.02, controls 44.7", "result": "64.2+/−6.69%"}, {"measurement": "size of scar (trichrome stain)", "setting": "myocardial infarction; three levels of section, all treated mice", "result": "reduced"}, {"measurement": "cell death by TUNEL assay in cardiomyocytes", "setting": "myocardial infarction; twenty-four hours after ligation", "result": "striking decrease"}, {"measurement": "cell death based on TUNEL assay compared to control cells", "setting": "embryonic heart explants", "result": "No significant difference"}, {"measurement": "number of migrating endothelial cells", "setting": "embryonic heart explants; E11.5 explants, compared to PBS, p<0.01", "result": "increased number of migrating endothelial cells"}, {"measurement": "proliferative rate based on phosho-histone H3 immunostaining compared to control cells", "setting": "embryonic heart explants; migrated cells of explants", "result": "No significant difference"}, {"measurement": "migration of myocardial cells away from the explant", "setting": "embryonic heart explants; thymosin β4 added to primary explants on collagen gel", "result": "a large number of spontaneously beating, cardiac muscle actin-positive cells had migrated away from the explant"}]}
